Data taken from PubChem BioAssay (NCI).
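Step 1: Grow cells in 96-well plates. Step 2: Expose to compound for 48 hours at 5 concentrations. Step 3: Interpolate endpoints linearly; if unreached, use highest concentration. TGI is the concentration that stops growth completely.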

Key:
Assay in all cases: NCI anticancer screen, dose series, 48 h
HOP-62 NSCLC = system: HOP-62 NSCLC
RXF 393 renal = system: RXF 393 renal
SF-268 CNS = system: SF-268 CNS
SK-OV-3 ovarian = system: SK-OV-3 ovarian
EKVX NSCLC = system: EKVX NSCLC
RPMI-8226 leukemia = system: RPMI-8226 leukemia
CCRF-CEM leukemia = system: CCRF-CEM leukemia
MDA-MB-231 breast = system: MDA-MB-231 breast
HOP-92 NSCLC = system: HOP-92 NSCLC
OVCAR-4 ovarian = system: OVCAR-4 ovarian
MOLT-4 leukemia = system: MOLT-4 leukemia
UACC-257 melanoma = system: UACC-257 melanoma
SN12C renal = system: SN12C renal
UACC-62 melanoma = system: UACC-62 melanoma
NCI-H23 lung = system: NCI-H23 lung
M14 melanoma = system: M14 melanoma
HCT-116 colon = system: HCT-116 colon
TK-10 renal = system: TK-10 renal
SNB-75 CNS = system: SNB-75 CNS
SNB-19 CNS = system: SNB-19 CNS
HCT-15 colon = system: HCT-15 colon
KM12 colon = system: KM12 colon
SK-MEL-2 melanoma = system: SK-MEL-2 melanoma
ACHN renal = system: ACHN renal
OVCAR-3 ovarian = system: OVCAR-3 ovarian
NCI/ADR-RES ovarian = system: NCI/ADR-RES ovarian
MDA-MB-435 = system: MDA-MB-435
HCC-2998 colon = system: HCC-2998 colon
COLO 205 colon = system: COLO 205 colon
MDA-N = system: MDA-N
SF-539 CNS = system: SF-539 CNS
NCI-H460 lung = system: NCI-H460 lung
NCI-H522 lung = system: NCI-H522 lung
IGROV1 ovarian = system: IGROV1 ovarian
SR leukemia = system: SR leukemia
SF-295 CNS = system: SF-295 CNS
K-562 leukemia = system: K-562 leukemia
HL-60(TB) leukemia = system: HL-60(TB) leukemia
U251 CNS = system: U251 CNS
LOX IMVI melanoma = system: LOX IMVI melanoma
A549 NSCLC = system: A549 NSCLC
OVCAR-5 ovarian = system: OVCAR-5 ovarian
HT29 colon = system: HT29 colon
BT-549 breast = system: BT-549 breast
SW-620 colon = system: SW-620 colon
NCI-H226 lung = system: NCI-H226 lung
MALME-3M melanoma = system: MALME-3M melanoma
DU-145 prostate = system: DU-145 prostate
MCF7 breast = system: MCF7 breast
SK-MEL-28 melanoma = system: SK-MEL-28 melanoma
T-47D breast = system: T-47D breast
CAKI-1 renal = system: CAKI-1 renal
PC-3 prostate = system: PC-3 prostate
UO-31 renal = system: UO-31 renal
SK-MEL-5 melanoma = system: SK-MEL-5 melanoma
786-0 renal = system: 786-0 renal
HS 578T breast = system: HS 578T breast
OVCAR-8 ovarian = system: OVCAR-8 ovarian
A498 renal = system: A498 renal

CCN(CCCl)c1cc(CN(C)C)cc(NC(=O)c2ccc(C(=O)Nc3cc(CN(C)C)cc(N(CC)CCCl)c3)cc2)c1
TGI (HOP-62 NSCLC): 0.966 µM | TGI (RXF 393 renal): 0.109 µM | TGI (SF-268 CNS): 0.749 µM | TGI (SK-OV-3 ovarian): 5.82 µM | TGI (EKVX NSCLC): 5.58 µM | TGI (RPMI-8226 leukemia): 1.02 µM | TGI (CCRF-CEM leukemia): 1.01 µM | TGI (MDA-MB-231 breast): 1.36 µM | TGI (HOP-92 NSCLC): 0.662 µM | TGI (OVCAR-4 ovarian): 9.46 µM | TGI (MOLT-4 leukemia): 0.248 µM | TGI (UACC-257 melanoma): 1.32 µM | TGI (SN12C renal): 1.53 µM | TGI (UACC-62 melanoma): 0.273 µM | TGI (NCI-H23 lung): 0.472 µM | TGI (M14 melanoma): 0.926 µM | TGI (HCT-116 colon): 1.06 µM | TGI (TK-10 renal): 2.57 µM | TGI (SNB-75 CNS): 0.506 µM | TGI (SNB-19 CNS): 0.936 µM | TGI (HCT-15 colon): 29.5 µM | TGI (KM12 colon): 1.36 µM | TGI (SK-MEL-2 melanoma): 3.23 µM | TGI (ACHN renal): 0.994 µM | TGI (OVCAR-3 ovarian): 2.66 µM | TGI (NCI/ADR-RES ovarian): > 100 µM | TGI (MDA-MB-435): 0.48 µM | TGI (HCC-2998 colon): 0.311 µM | TGI (COLO 205 colon): 0.551 µM | TGI (MDA-N): 0.594 µM | TGI (SF-539 CNS): 0.815 µM | TGI (NCI-H460 lung): 1.54 µM | TGI (NCI-H522 lung): 0.234 µM | TGI (IGROV1 ovarian): 0.732 µM | TGI (SR leukemia): 18.1 µM | TGI (SF-295 CNS): 1.21 µM | TGI (K-562 leukemia): 1.6 µM | TGI (HL-60(TB) leukemia): 1.09 µM | TGI (U251 CNS): 1.64 µM | TGI (LOX IMVI melanoma): 0.712 µM | TGI (A549 NSCLC): 3.89 µM | TGI (OVCAR-5 ovarian): 0.966 µM | TGI (HT29 colon): 3.55 µM | TGI (BT-549 breast): 0.683 µM | TGI (SW-620 colon): 1.92 µM | TGI (NCI-H226 lung): 0.251 µM | TGI (MALME-3M melanoma): 0.88 µM | TGI (DU-145 prostate): 13.7 µM | TGI (MCF7 breast): 0.241 µM | TGI (SK-MEL-28 melanoma): 0.536 µM | TGI (T-47D breast): 15.4 µM | TGI (CAKI-1 renal): 1.74 µM | TGI (PC-3 prostate): 2.4 µM | TGI (UO-31 renal): 11.6 µM | TGI (SK-MEL-5 melanoma): 0.328 µM | TGI (786-0 renal): 1.3 µM | TGI (HS 578T breast): 0.761 µM | TGI (OVCAR-8 ovarian): 1.63 µM

CSC1=N/C(=C\c2ccc(C)cc2)C(=O)N1
TGI (HOP-62 NSCLC): > 100 µM | TGI (RXF 393 renal): 96.2 µM | TGI (SF-268 CNS): > 100 µM | TGI (SK-OV-3 ovarian): > 100 µM | TGI (EKVX NSCLC): > 100 µM | TGI (RPMI-8226 leukemia): > 100 µM | TGI (CCRF-CEM leukemia): > 100 µM | TGI (MDA-MB-231 breast): > 100 µM | TGI (HOP-92 NSCLC): > 100 µM | TGI (OVCAR-4 ovarian): > 100 µM | TGI (MOLT-4 leukemia): > 100 µM | TGI (UACC-257 melanoma): > 100 µM | TGI (SN12C renal): > 100 µM | TGI (UACC-62 melanoma): > 100 µM | TGI (NCI-H23 lung): > 100 µM | TGI (M14 melanoma): > 100 µM | TGI (HCT-116 colon): > 100 µM | TGI (TK-10 renal): > 100 µM | TGI (SNB-75 CNS): > 100 µM | TGI (SNB-19 CNS): > 100 µM | TGI (HCT-15 colon): > 100 µM | TGI (KM12 colon): > 100 µM | TGI (SK-MEL-2 melanoma): > 100 µM | TGI (ACHN renal): > 100 µM | TGI (OVCAR-3 ovarian): > 100 µM | TGI (NCI/ADR-RES ovarian): > 100 µM | TGI (MDA-MB-435): > 100 µM | TGI (HCC-2998 colon): > 100 µM | TGI (COLO 205 colon): > 100 µM | TGI (MDA-N): > 100 µM | TGI (SF-539 CNS): > 100 µM | TGI (NCI-H522 lung): > 100 µM | TGI (IGROV1 ovarian): > 100 µM | TGI (SR leukemia): > 100 µM | TGI (SF-295 CNS): > 100 µM | TGI (HL-60(TB) leukemia): > 100 µM | TGI (U251 CNS): > 100 µM | TGI (LOX IMVI melanoma): > 100 µM | TGI (A549 NSCLC): > 100 µM | TGI (OVCAR-5 ovarian): > 100 µM | TGI (HT29 colon): > 100 µM | TGI (BT-549 breast): > 100 µM | TGI (SW-620 colon): > 100 µM | TGI (NCI-H226 lung): > 100 µM | TGI (MALME-3M melanoma): > 100 µM | TGI (DU-145 prostate): > 100 µM | TGI (MCF7 breast): > 100 µM | TGI (SK-MEL-28 melanoma): > 100 µM | TGI (T-47D breast): > 100 µM | TGI (CAKI-1 renal): > 100 µM | TGI (PC-3 prostate): > 100 µM | TGI (UO-31 renal): > 100 µM | TGI (786-0 renal): > 100 µM | TGI (HS 578T breast): > 100 µM | TGI (OVCAR-8 ovarian): > 100 µM

Nc1cc(Cl)cc2cc(Cl)cnc12
TGI (HOP-62 NSCLC): > 100 µM | TGI (RXF 393 renal): > 100 µM | TGI (SF-268 CNS): > 100 µM | TGI (SK-OV-3 ovarian): > 100 µM | TGI (EKVX NSCLC): > 100 µM | TGI (RPMI-8226 leukemia): > 100 µM | TGI (CCRF-CEM leukemia): > 100 µM | TGI (MDA-MB-231 breast): > 100 µM | TGI (HOP-92 NSCLC): 99.3 µM | TGI (OVCAR-4 ovarian): > 100 µM | TGI (MOLT-4 leukemia): > 100 µM | TGI (UACC-257 melanoma): > 100 µM | TGI (SN12C renal): > 100 µM | TGI (UACC-62 melanoma): > 100 µM | TGI (NCI-H23 lung): > 100 µM | TGI (M14 melanoma): > 100 µM | TGI (HCT-116 colon): > 100 µM | TGI (TK-10 renal): > 100 µM | TGI (SNB-75 CNS): > 100 µM | TGI (SNB-19 CNS): > 100 µM | TGI (HCT-15 colon): > 100 µM | TGI (KM12 colon): > 100 µM | TGI (ACHN renal): > 100 µM | TGI (OVCAR-3 ovarian): > 100 µM | TGI (NCI/ADR-RES ovarian): > 100 µM | TGI (MDA-MB-435): > 100 µM | TGI (HCC-2998 colon): > 100 µM | TGI (COLO 205 colon): > 100 µM | TGI (MDA-N): > 100 µM | TGI (SF-539 CNS): > 100 µM | TGI (NCI-H460 lung): > 100 µM | TGI (NCI-H522 lung): > 100 µM | TGI (IGROV1 ovarian): > 100 µM | TGI (SR leukemia): > 100 µM | TGI (SF-295 CNS): > 100 µM | TGI (K-562 leukemia): > 100 µM | TGI (HL-60(TB) leukemia): > 100 µM | TGI (U251 CNS): > 100 µM | TGI (LOX IMVI melanoma): > 100 µM | TGI (A549 NSCLC): > 100 µM | TGI (OVCAR-5 ovarian): > 100 µM | TGI (HT29 colon): > 100 µM | TGI (BT-549 breast): > 100 µM | TGI (SW-620 colon): > 100 µM | TGI (NCI-H226 lung): > 100 µM | TGI (MALME-3M melanoma): > 100 µM | TGI (DU-145 prostate): > 100 µM | TGI (MCF7 breast): > 100 µM | TGI (SK-MEL-28 melanoma): > 100 µM | TGI (T-47D breast): > 100 µM | TGI (CAKI-1 renal): > 100 µM | TGI (PC-3 prostate): > 100 µM | TGI (UO-31 renal): > 100 µM | TGI (SK-MEL-5 melanoma): > 100 µM | TGI (786-0 renal): > 100 µM | TGI (HS 578T breast): > 100 µM | TGI (OVCAR-8 ovarian): > 100 µM | TGI (A498 renal): > 100 µM
